For series [1], the system named is MCF7. Description: Induction of apoptosis in human MCF7 cells assessed as early apoptotic cells at 5 uM incubated for 48 hrs by AnnexinV-FITC/propidium iodide staining based flow cytometry analysis (reference value: 0.28 %). The series is classed as functional.
Series [2] has as its system MCF7. In words: Induction of apoptosis in human MCF7 cells assessed as late apoptotic cells at 20 uM incubated for 48 hrs by AnnexinV-FITC/propidium iodide staining based flow cytometry analysis (reference value: 0.015 %). The series is classed as functional.
The test system of series [3] is MCF7. In words: cells. The series is classed as functional. Particulars: Homo sapiens, time 48 hrs.
Description: Inhibition of cell migration in human MCF7 cells assessed as reduction in cell migration at 1 uM measured for 48 hrs by wound healing assay based microscopic analysis (Rvb = 70.25%)
In series [4] the target is DNA topoisomerase 2-alpha (Homo sapiens) (UniProt P11388). In words: Poison activity at human topoisomerase 2 assessed as stabilization of enzyme-DNA cleavage complex by measuring linear DNA formation at 100 uM incubated for 6 mins by EtBr staining based UV light analysis.
DNA topoisomerase 2-alpha (Homo sapiens), sequence (P11388 whole entry): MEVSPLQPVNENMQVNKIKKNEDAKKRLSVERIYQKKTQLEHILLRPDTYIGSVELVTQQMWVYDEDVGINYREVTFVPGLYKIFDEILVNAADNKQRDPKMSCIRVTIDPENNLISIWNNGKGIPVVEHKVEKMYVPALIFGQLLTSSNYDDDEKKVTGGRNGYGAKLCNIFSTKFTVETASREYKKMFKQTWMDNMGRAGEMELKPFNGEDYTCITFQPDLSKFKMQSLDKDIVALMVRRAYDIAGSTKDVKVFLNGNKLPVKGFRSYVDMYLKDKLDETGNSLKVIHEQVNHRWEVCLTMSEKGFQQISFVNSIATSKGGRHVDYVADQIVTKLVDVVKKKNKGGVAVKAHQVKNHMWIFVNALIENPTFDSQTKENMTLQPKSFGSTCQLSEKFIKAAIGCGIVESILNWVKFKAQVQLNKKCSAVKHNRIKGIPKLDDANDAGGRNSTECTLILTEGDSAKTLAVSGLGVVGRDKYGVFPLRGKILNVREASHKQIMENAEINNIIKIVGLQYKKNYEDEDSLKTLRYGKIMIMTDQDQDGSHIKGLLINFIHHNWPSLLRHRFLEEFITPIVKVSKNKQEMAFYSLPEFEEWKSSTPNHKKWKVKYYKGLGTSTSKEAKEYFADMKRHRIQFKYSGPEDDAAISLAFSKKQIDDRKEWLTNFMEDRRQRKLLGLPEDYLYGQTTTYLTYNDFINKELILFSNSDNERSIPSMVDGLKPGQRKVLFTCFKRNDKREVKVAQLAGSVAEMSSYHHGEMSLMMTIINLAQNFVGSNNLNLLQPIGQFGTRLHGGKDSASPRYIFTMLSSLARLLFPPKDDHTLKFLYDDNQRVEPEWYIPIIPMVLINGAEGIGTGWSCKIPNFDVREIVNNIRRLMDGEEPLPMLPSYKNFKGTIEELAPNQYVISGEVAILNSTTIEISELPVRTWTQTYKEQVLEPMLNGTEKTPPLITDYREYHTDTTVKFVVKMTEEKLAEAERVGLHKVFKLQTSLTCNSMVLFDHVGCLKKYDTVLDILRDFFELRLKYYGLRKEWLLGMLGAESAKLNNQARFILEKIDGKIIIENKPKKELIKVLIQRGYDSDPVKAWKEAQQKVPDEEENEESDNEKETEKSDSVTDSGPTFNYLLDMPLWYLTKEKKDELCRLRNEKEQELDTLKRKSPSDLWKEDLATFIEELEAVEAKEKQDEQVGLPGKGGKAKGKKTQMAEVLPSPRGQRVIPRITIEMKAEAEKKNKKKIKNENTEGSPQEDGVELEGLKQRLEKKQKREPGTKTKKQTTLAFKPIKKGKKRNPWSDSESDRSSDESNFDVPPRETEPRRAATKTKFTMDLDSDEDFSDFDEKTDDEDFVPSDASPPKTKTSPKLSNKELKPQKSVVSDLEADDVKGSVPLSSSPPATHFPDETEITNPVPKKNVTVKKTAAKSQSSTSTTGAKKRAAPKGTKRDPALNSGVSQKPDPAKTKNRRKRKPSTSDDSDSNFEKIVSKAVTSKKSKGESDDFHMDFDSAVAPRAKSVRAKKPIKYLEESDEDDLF
Series [5] concerns MCF7. In words: Induction of apoptosis in human MCF7 cells assessed as cell depletion at 10 uM incubated for 48 hrs by AO/EB staining based fluorescence microscopic analysis. The series is classed as functional.
Series [6] has as its system MCF7. In words: Induction of apoptosis in human MCF7 cells assessed as cell shrinkage at 10 uM incubated for 48 hrs by AO/EB staining based fluorescence microscopic analysis. The series is classed as functional.
In series [7] the test system is MCF7. In words: Induction of apoptosis in human MCF7 cells assessed as early apoptotic cells at 10 uM incubated for 48 hrs by AnnexinV-FITC/propidium iodide staining based flow cytometry analysis (reference value: 0.28 %). The series is classed as functional.
Series [8] concerns MCF7. In words: Induction of apoptosis in human MCF7 cells assessed as necrotic cells at 20 uM incubated for 48 hrs by AnnexinV-FITC/propidium iodide staining based flow cytometry analysis (reference value: 0.55 %). The series is classed as functional.
Series [9] has as its system U-937. In words: Antiproliferative activity against human U-937 cells assessed as reduction in cell viability measured for 48 hrs by MTT assay. The series is classed as functional, cell-based. The note with it: U-937, 48 h.
Series [10] has as its system MCF7. In words: Induction of apoptosis in human MCF7 cells assessed as late apoptotic cells at 10 uM incubated for 48 hrs by AnnexinV-FITC/propidium iodide staining based flow cytometry analysis (reference value: 0.015 %). The series is classed as functional.
The subject of series [11] is MCF7. In words: Induction of apoptosis in human MCF7 cells assessed as appearance of rounded cells at 10 uM incubated for 48 hrs by AO/EB staining based fluorescence microscopic analysis. The series is classed as functional, cell-based.
Series [12] concerns MCF7. Description: Induction of apoptosis in human MCF7 cells assessed as viable cells at 5 uM incubated for 48 hrs by AnnexinV-FITC/propidium iodide staining based flow cytometry analysis (reference value: 99.2 %). The series is classed as functional. Particulars: read-out: Activity.
In series [13] the test system is NIH3T3. In words: Antiproliferative activity against mouse 3T3 cells assessed as reduction in cell viability at 100 uM measured for 48 hrs by MTT assay relative to control. The series is classed as toxicity, cell-based. Particulars: nih3t3, 48 h.
Series [14] concerns MCF7. In words: Induction of apoptosis in human MCF7 cells assessed as necrotic cells at 10 uM incubated for 48 hrs by AnnexinV-FITC/propidium iodide staining based flow cytometry analysis (reference value: 0.55 %). The series is classed as functional.
Series [15] relates to MCF7. Description: Induction of apoptosis in human MCF7 cells assessed as late apoptotic cells at 5 uM incubated for 48 hrs by AnnexinV-FITC/propidium iodide staining based flow cytometry analysis (reference value: 0.015 %). The series is classed as functional.
The subject of series [16] is MCF7. Description: Induction of apoptosis in human MCF7 cells assessed as necrotic cells at 5 uM incubated for 48 hrs by AnnexinV-FITC/propidium iodide staining based flow cytometry analysis (reference value: 0.55 %). The series is classed as functional.
Series [17] deals with MGC-803. Description: Antiproliferative activity against human MGC-803 cells assessed as reduction in cell viability measured for 48 hrs by MTT assay. The series is classed as functional, cell-based. Particulars: MGC-803, 48 h.
Series [18] addresses Histone deacetylase. Description: Inhibition of HDAC in human HeLa nuclear extract measured after 30 mins by fluorescence based assay. The series is classed as cell-free.
The test system of series [19] is MCF7. In words: Inhibition of cell migration in human MCF7 cells assessed as reduction in cell migration at 5 uM measured for 48 hrs by wound healing assay based microscopic analysis (reference value: 70.25%). The series is classed as functional.
Series [20] deals with DNA topoisomerase 2-alpha (Homo sapiens) (UniProt P11388). In words: Inhibition of human topoisomerase 2 assessed as relaxation of pBR322 plasmid DNA at 100 uM measured after 30 mins by ethidium bromide staining based UV transilluminator analysis.
For series [21], the system named is MCF7. In words: Induction of apoptosis in human MCF7 cells assessed as viable cells at 20 uM incubated for 48 hrs by AnnexinV-FITC/propidium iodide staining based flow cytometry analysis (reference value: 99.2 %). The series is classed as functional. Particulars: read-out: Activity.
The subject of series [22] is MCF7. Description: Induction of apoptosis in human MCF7 cells assessed as early apoptotic cells at 20 uM incubated for 48 hrs by AnnexinV-FITC/propidium iodide staining based flow cytometry analysis (reference value: 0.28 %). The series is classed as functional.
The subject of series [23] is MCF7. In words: Induction of apoptosis in human MCF7 cells assessed as viable cells at 10 uM incubated for 48 hrs by AnnexinV-FITC/propidium iodide staining based flow cytometry analysis (reference value: 99.2 %). The series is classed as functional. Particulars: read-out: Activity.
In series [24] the test system is MCF7. In words: cells. The series is classed as functional. Particulars: Homo sapiens, time 48 hrs. The source holds these as a separate data set.
Description: Inhibition of cell migration in human MCF7 cells assessed as reduction in cell migration at 2.5 uM measured for 48 hrs by wound healing assay based microscopic analysis (Rvb = 70.25%)
For series [25], the target named is T1, DNA topoisomerase 1 (Homo sapiens) (UniProt P11387).
T1 sequence (whole entry): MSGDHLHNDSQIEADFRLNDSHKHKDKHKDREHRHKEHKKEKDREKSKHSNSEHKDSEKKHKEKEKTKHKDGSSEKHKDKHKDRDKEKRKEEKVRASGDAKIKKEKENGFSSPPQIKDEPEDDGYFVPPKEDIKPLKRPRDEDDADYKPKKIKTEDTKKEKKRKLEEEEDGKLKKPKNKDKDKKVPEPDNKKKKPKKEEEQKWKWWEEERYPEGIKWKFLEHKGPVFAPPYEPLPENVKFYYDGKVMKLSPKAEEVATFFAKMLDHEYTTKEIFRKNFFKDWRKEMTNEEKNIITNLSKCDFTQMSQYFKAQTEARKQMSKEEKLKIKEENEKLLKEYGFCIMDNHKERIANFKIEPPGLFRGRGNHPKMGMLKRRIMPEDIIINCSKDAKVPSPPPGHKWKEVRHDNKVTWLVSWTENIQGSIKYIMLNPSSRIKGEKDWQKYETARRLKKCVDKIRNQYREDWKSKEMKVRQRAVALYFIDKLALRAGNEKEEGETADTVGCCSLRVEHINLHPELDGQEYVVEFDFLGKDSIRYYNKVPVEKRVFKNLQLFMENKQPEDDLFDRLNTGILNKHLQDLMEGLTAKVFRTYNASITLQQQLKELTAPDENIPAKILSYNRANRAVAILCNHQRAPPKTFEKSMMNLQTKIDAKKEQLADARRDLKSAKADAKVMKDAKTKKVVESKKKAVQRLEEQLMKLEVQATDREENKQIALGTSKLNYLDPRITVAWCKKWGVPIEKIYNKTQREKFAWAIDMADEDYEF
In words: Inhibition of human topoisomerase 1 assessed as relaxation of pBR322 plasmid DNA at 100 uM measured after 30 mins by agarose gel electrophoresis analysis.

Series [26] concerns MCF7. In words: Antiproliferative activity against human MCF7 cells assessed as reduction in cell viability measured for 48 hrs by MTT assay. The series is classed as functional, cell-based. Particulars: MCF7, 48 h.

The values below come from ChEMBL document CHEMBL5346940, “Design, synthesis and biological evaluation of dual Topo II/HDAC inhibitors bearing pyrimido[5,4-b]indole and pyrazolo[3,4-d]pyrimidine motifs” (Eur J Med Chem, 2023).

Calls of active or inactive are those of the source. The calls are words filed in the database; no cut-off is given here.

As to `O=C(CCCCSc1nc2c([nH]c3ccccc32)c(=O)[nH]1)NO`, the Activity was determined as 10.4% in [1]; 24.9% in series [2]; 26.6% in series [7]; 0.54% in [8]; 12.1% in series [10]; 7.62% in series [13]. The Activity in series [14] turned out to be 0.67%; in series [15] it was 5.88%; in series [16] it was 0.3%; in [22] it was 29%. In series [3], this compound returned an inhibition at 1 µM of 58.5%. Moreover, the result in [4], in [5], in [6] and in [11] was Active. For the same compound, the IC50 in [9] was 28.5 µM; in [17] it was 9.59 µM; in [18], 4.67 µM. The viability at 5 µM in series [12] amounted to 83.4%. The inhibition at 5 µM in series [19] was found to be 19.3%. Further, the “topoisomerase II inhibition (active/inactive)” value in series [20] was “Active”. Moreover, the viability at 20 µM in series [21] came out at 45.5%. Further, the viability at 10 µM in series [23] came to 60.6%. Besides, in series [24], the inhibition at 2.5 µM came to 32.3%. The “inhibition (active/inactive call)” value in [25] is “Active”.

As to `O=C(CCCCCCC(=O)Nc1ccccc1)NO` [VORINOSTAT], the Activity in series [7] is on record as 35.2%; in series [10] it was 19.7%; in series [13], 14.98%; in [14], 0.41%. For the same compound, the IC50 in [9] and in [17] was 1.58 µM each time. Besides, in series [23], the viability at 10 µM was 44.7%.

`COc1cc([C@@H]2c3cc4c(cc3[C@@H](O[C@@H]3O[C@@H]5CO[C@@H](C)O[C@H]5[C@H](O)[C@H]3O)[C@H]3COC(=O)[C@H]23)OCO4)cc(OC)c1O` [ETOPOSIDE]: the inhibition at 1 µM in series [3] was 64.7%. Besides, the result in series [4] was Active. In addition, the Activity in series [7] worked out at 4.41%; in series [10] it was 2.48%; in series [13], 21.47%; in [14], 0.37%. Also, the IC50 was found to be 22.9 µM in series [9], 29.7 µM in series [26] and 10.8 µM in series [17]. Moreover, the viability at 10 µM in series [23] came to 92.7%. The same compound registered an inhibition at 2.5 µM in series [24] of 47.1%.

On to `O=C(CCCCCSc1nc2c([nH]c3ccccc32)c(=O)[nH]1)NO`, for which the IC50 came out at 34.8 µM in series [9], 28.6 µM in series [26], 27.6 µM in [17] and 2.58 µM in series [18]. Besides, the Activity in series [13] is 65.7%. Moreover, in series [20], the “topoisomerase II inhibition (active/inactive)” value was “Active”. Further, in [25], the “inhibition (active/inactive call)” value is “Active”.

In the case of `CCn1c(SCCCCC(=O)NO)nc2c([nH]c3ccccc32)c1=O`, the Activity in series [1] is given as 4.86%; in [2] it was 17.1%; in series [7], 14.1%; in [8], 0.48%; in series [10], 6.9%; in series [13], 38.7%. In addition, the Activity in series [14] is listed as 0.3%; in series [15], 1.16%; in series [16], 0.6%; in series [22], 28.8%. Moreover, in series [3], 1 µM produced 65.4% inhibition. Moreover, the outcome in series [5], in series [6] and in series [11] was Active. The half-maximal inhibitory concentration (IC50) in [9] came to 24.6 µM; in [26] it was 18.3 µM; in series [17] it was 12.3 µM; in series [18] it was 5.9 µM. Besides, the viability at 5 µM in series [12] turned out to be 93.4%. Further, the inhibition at 5 µM in series [19] amounted to 29.7%. Besides, the “topoisomerase II inhibition (active/inactive)” value in [20] is “Active”. The viability at 20 µM in [21] turned out to be 53.7%. Besides, the viability at 10 µM in series [23] was 78.7%. Moreover, the inhibition at 2.5 µM in series [24] was 56.4%. In series [25], the “inhibition (active/inactive call)” value is “Active”.

`O=C(/C=C/c1ccc(CSc2nc3c([nH]c4ccccc43)c(=O)[nH]2)cc1)NO`: the half-inhibitory concentration (IC50) in series [9] came to 30.3 µM; in series [26] it was 37.2 µM; in [17], 21.8 µM; in series [18], 2.38 µM. For the same compound, the Activity in series [13] came out at 21.56%. In addition, the “inhibition (active/inactive call)” value in series [25] is “Active”.
